Laboratory results as given in PubChem BioAssay (NCI).
“And” between values parts separate entries of the source, which are not always exact repeats. Equal entries are not always repeated.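 The compound was tested at five concentrations on cells cultured in 96-well plates, with a 48-hour exposure period. At the TGI there is no net growth.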

Columns and labels:
Experiment in all cases: NCI-60 cell line screen, 48 h
SK-MEL-2 melanoma = system: SK-MEL-2 melanoma
KM12 colon = system: KM12 colon
T-47D breast = system: T-47D breast
OVCAR-3 ovarian = system: OVCAR-3 ovarian
HCT-116 colon = system: HCT-116 colon
HCC-2998 colon = system: HCC-2998 colon
SNB-19 CNS = system: SNB-19 CNS
HCT-15 colon = system: HCT-15 colon
BT-549 breast = system: BT-549 breast
HT29 colon = system: HT29 colon

Row | Compound | TGI (SK-MEL-2 melanoma) [µM] | TGI (KM12 colon) [µM] | TGI (T-47D breast) [µM] | TGI (OVCAR-3 ovarian) [µM] | TGI (HCT-116 colon) [µM] | TGI (HCC-2998 colon) [µM] | TGI (SNB-19 CNS) | TGI (HCT-15 colon) [µM] | TGI (BT-549 breast) [µM] | TGI (HT29 colon) [µM]
1 | CC1=NC(=N)N=C(C)C1N=Nc1ccc2nc(C)[nH]c2c1 (stereo not given) | > 100 | > 100 | > 100 | > 100 | > 100 | > 100 | > 100 µM | > 100 | > 100 | > 100
2 | Cc1n[nH]c(=O)n1-n1cccc1 | > 100 | > 100 | > 100 | > 100 | > 100 | > 100 | > 100 µM | > 100 | > 100 | > 100
3 | CC(=O)Oc1cc2c(cc1OCC(F)(F)F)[C@H]1CC[C@]3(C)[C@@H](OC(C)=O)CC[C@H]3[C@@H]1CC2=O | 44.7 | 74.9 | > 89.1 | 45.6 | 55 | 67.3 | > 67 µM | > 88 | > 77.7 | > 63.8
4 | O=c1[nH]c2c(Nc3c4ccccc4nc4ccccc34)c([N+](=O)[O-])c(Nc3c4ccccc4nc4ccccc34)c([N+](=O)[O-])c2[nH]1 | 3.93 | 12 | > 39.1 | 6.87 | 8.45 | 3.5 | 13.7 µM | 6.98 | 20.6 | 3.11
5 | O=C(N/N=C/c1ccccc1)c1c(F)c(F)c(F)c(F)c1F | > 100 | > 100 | > 100 | > 100 | > 100 | > 100 | > 100 µM | > 100 | > 100 | > 100
6 | O=C1Nc2noc(=O)nc2NO1 | > 200 | > 200 | > 200 | > 200 | > 200 | > 200 | > 200 µM | > 200 | > 200 | > 200
7 | Cc1nnc(SCc2nc(C#N)c(C#N)nc2CSc2nnc(C)s2)s1 | 63.4 | 37 | 17.3 | 20.7 | 11.5 | 30.4 | > 100 µM | 26.4 | 36.3 | 37.2
8 | COC(=O)C(Cc1ccccc1)NC(=O)C(CNC(=O)OCc1ccccc1)C(=O)OCc1ccccc1 (stereo not given) | > 100 | > 100 | > 100 | > 100 | > 100 | > 100 | > 100 µM | > 100 | > 100 | > 100
9 | OCCN1CCN(c2nc(N3CCCC3)c3nc(Cl)c(NCc4ccccc4)nc3n2)CC1 | 16.8 | 15.8 | 17.4 | 23.5 | 17.6 | 3.56 | 21.3 µM | 7.91 | 20.7 | 10.6
10 | COc1cc2c(cc1O)NC(=O)[C@@H]1C[C@@H](O)CN1C2=O | > 100 | > 100 | > 100 | > 100 | > 100 | > 100 | > 100 µM | > 100 | > 100 | > 100
11 | CC(C)Oc1cccc(N2C(CCc3c[nH]c4ccc(Br)cc34)=NS(=O)(=O)c3cnccc32)c1 | > 100 | > 100 | > 100 | > 100 | > 100 | > 100 | > 100 µM | > 100 | > 100 | > 100
12 | COC1=C(OC)C(=O)C(Cc2c(Cl)nc3sccn23)=C(C)C1=O | 38.7 | 22.3 | 17.8 | 25.8 | 41.3 | 32.1 | 28.1 µM | 27.2 | 27.5 | 27.7
13 | O=C1/C(=C\c2cccc(Oc3ccccc3)c2)SC(c2ccccc2)N1c1cc(Cl)ccc1Cl (stereo not given) | > 100 | > 100 | > 100 | 77.4 | 52.7 | > 100 | > 100 µM | > 100 | > 100 | > 100
14 | COC(=O)Nc1cc(OCCCOC(C)=O)c2[nH]c(C(=O)OC)cc2c1C[C@H](O)CO | > 100 | > 100 | > 100 | > 100 | > 100 | > 100 | > 100 µM | > 100 | > 100 | > 100
15 | COc1ccccc1N=Nc1c(O)ccc2ccccc12 | > 100 | > 100 | > 100 | > 100 | > 100 | 71 | > 74.7 µM and 90.4 µM | > 100 | > 100 | > 100
16 | Cc1ccc(C(=O)Nc2ccc(CP(=O)(O)O)cc2CP(=O)(O)O)cc1N | > 100 | > 100 | > 100 | > 100 | > 100 | > 100 | > 100 µM | > 100 | > 100 | > 100
17 | O=C(/C=C\c1ccccc1)Oc1ccc(/C=C2\CCC/C(=C\c3ccc(OC(=O)/C=C\c4ccccc4)cc3)C2=O)cc1 | > 100 | > 100 | > 100 | > 100 | > 100 | > 100 | > 100 µM | > 100 | > 100 | > 100
18 | Clc1[nH]nc2ccccc12 | > 100 | > 100 | > 100 | > 100 | > 100 | > 100 | > 100 µM | > 100 | > 100 | > 100
